Active and inactive are the calls of the source. No cut-off for these calls is given here.
How the values were obtained:
Staphylococcus aureus [1] = assay: Antibacterial activity against methicillin-resistant Staphylococcus aureus clinical isolate M12 infected in KM mouse assessed as decrease in bacterial survival rate at 5 mg/kg, sc measured after 24 hrs by drop-plate counting method relative to control; type: functional
[2] = Toxicity in KM mouse assessed as pathological change in spleen at 20 mg/kg, sc measured after 24 hrs by H and E staining based analysis; type: organism-based; details: in vivo
[3] = Toxicity in BALB/c mouse assessed as smooth hair at <15 mg/kg, ip bid for 7 days; type: organism-based; details: in vivo, 168 h, time 7 day
Staphylococcus aureus [4] = assay: Disruption of cell membrane in methicillin-resistant Staphylococcus aureus clinical isolate M12 assessed as fold increase in intracellular ROS level at 128 ug/ml incubated for 40 mins by DCFH-DA probe based analysis relative to control; type: functional; details: dose 128 µg/ml
Staphylococcus aureus [5] = assay: Induction of resistance development in Staphylococcus aureus ATCC 29213 at 0.5 times MIC treated for 20 days of consecutive passages; type: functional, organism-based; details: time 20.0 day
Staphylococcus aureus [6] = assay: Antibacterial activity against methicillin-resistant Staphylococcus aureus clinical isolate M12 infected in KM mouse assessed as decrease in erythematous pustules at infected skin on back of animal at 5 mg/kg, sc measured after 24 hrs; type: functional, organism-based
[7] = Toxicity in KM mouse assessed as change in MCV level at 20 mg/kg, sc measured after 24 hrs; type: organism-based; details: in vivo
[8] = Toxicity in KM mouse assessed as change in platelet count at 20 mg/kg, sc measured after 24 hrs; type: organism-based; details: in vivo
[9] = Toxicity in KM mouse assessed as inflammatory cell infiltration in renal tubular epithelial cells at 20 mg/kg, sc measured after 24 hrs by H and E staining based analysis; type: organism-based; details: in vivo
[10] = Toxicity in KM mouse infected with methicillin-resistant Staphylococcus aureus clinical isolate M12 assessed as damage in liver at 5 to 10 mg/kg, sc measured after 24 hrs by H and E staining based analysis; type: organism-based; details: in vivo, dose 5-10 mg/kg
Staphylococcus aureus [11] = assay: Antibacterial activity against methicillin-resistant Staphylococcus aureus clinical isolate M14 by CLSI based micro-broth dilution method; type: functional
Staphylococcus aureus [12] = assay: Disruption of cell membrane in methicillin-resistant Staphylococcus aureus clinical isolate M12 assessed as increase in DNA leakage incubated for 4 hrs by […]; type: functional, organism-based; details: dose <= 16.0 µg/ml
Staphylococcus aureus [13] = assay: Antibacterial activity against methicillin-resistant Staphylococcus aureus clinical isolate M12 incubated for 16 to 18 hrs in presence of peptidoglycan; type: functional; details: time 16-18 hrs
[14] = Toxicity in BALB/c mouse assessed as knotted hair at 40 mg/kg, ip bid for 7 days; type: organism-based; details: in vivo, 168 h, time 7 day
[15] = Toxicity in BALB/c mouse assessed as change in blood biochemistry index at 15 mg/kg, ip bid for 7 days; type: organism-based; details: in vivo, 168 h, time 7 day
Staphylococcus aureus [16] = assay: Induction of membrane depolarization in methicillin-resistant Staphylococcus aureus clinical isolate M12 at 8 to 32 times MIC measured every 2 mins for 10 times by DiSC3(5) dye based analysis; type: functional, organism-based; details: time 20.0 min
Staphylococcus aureus [17] = assay: Disruption of cell membrane in methicillin-resistant Staphylococcus aureus clinical isolate M12 assessed as accumulation of intracellular ROS level incubated for 40 mins by DCFH-DA probe based analysis; type: functional, organism-based; details: dose <= 128.0 µg/ml
[18] = Toxicity in KM mouse assessed as change in HGB level at 20 mg/kg, sc measured after 24 hrs; type: organism-based; details: in vivo
[19] = Toxicity in BALB/c mouse assessed as change in blood routine index at 15 mg/kg, ip bid for 7 days; type: organism-based; details: in vivo, 168 h, time 7 day
[20] = Toxicity in BALB/c mouse assessed as pathological change in red medulla of spleen at 15 mg/kg, ip bid for 7 days; type: organism-based; details: in vivo, 168 h, time 7 day
Staphylococcus aureus [21] = assay: Induction of morphological changes in methicillin-resistant Staphylococcus aureus clinical isolate M12 assessed as irregular change in cell surface at 8 times MIC incubated for 4 hrs by SEM analysis; type: functional, organism-based
[22] = Toxicity in KM mouse assessed as pathological change in skin at 20 mg/kg, sc measured after 24 hrs by H and E staining based analysis; type: organism-based; details: in vivo
[23] = Toxicity in KM mouse assessed as inflammatory cell infiltration in lung epithelial cells at 20 mg/kg, sc measured after 24 hrs by H and E staining based analysis; type: organism-based; details: in vivo
Staphylococcus aureus [24] = assay: Antibacterial activity against methicillin-resistant Staphylococcus aureus clinical isolate M12 infected in KM mouse assessed as reduction in IL-6 level at infection site at 5 mg/kg, sc measured after 24 hrs by ELISA; type: functional
Staphylococcus aureus [25] = assay: Antibacterial activity against methicillin-resistant Staphylococcus aureus N315 by CLSI based micro-broth dilution method; type: functional
Staphylococcus aureus [26] = assay: Disruption of cell membrane in methicillin-resistant Staphylococcus aureus clinical isolate M12 assessed as increase in protein leakage incubated for 4 hrs by BCA assay; type: functional, organism-based; details: dose <= 16.0 µg/ml
Staphylococcus aureus [27] = assay: Antibacterial activity against methicillin-resistant Staphylococcus aureus clinical isolate M12 infected in sepsis BALB/c mouse model assessed as decrease in bacterial load in kidney at 12 mg/kg, ip administered consecutively at 12 hr-interval for 24 hrs measured after 24 hrs post-last dose; type: functional; details: time 48 hrs
[28] = Toxicity in BALB/c mouse assessed as inflammatory cell infiltration in hepatocytes at 15 mg/kg, ip bid for 7 days; type: organism-based; details: in vivo, 168 h, time 7 day
[29] = Toxicity in KM mouse infected with methicillin-resistant Staphylococcus aureus clinical isolate M12 assessed as histopathological abnormality in heart at 5 to 10 mg/kg, sc measured after 24 hrs by H and E staining based analysis; type: organism-based; details: in vivo, dose 5-10 mg/kg
[30] = Toxicity in KM mouse infected with methicillin-resistant Staphylococcus aureus clinical isolate M12 assessed as damage in heart at 5 to 10 mg/kg, sc measured after 24 hrs by H and E staining based analysis; type: organism-based; details: in vivo, dose 5-10 mg/kg
Staphylococcus aureus [31] = assay: Induction of morphological changes in methicillin-resistant Staphylococcus aureus clinical isolate M12 assessed as torn cell membrane at 8 times MIC incubated for 4 hrs by SEM analysis; type: functional, organism-based
Staphylococcus aureus [32] = assay: Induction of morphological changes in methicillin-resistant Staphylococcus aureus clinical isolate M12 assessed as concavity in cell membrane at 8 times MIC incubated for 4 hrs by SEM analysis; type: functional, organism-based
[33] = Toxicity in KM mouse assessed as pathological change in white medulla of spleen at 20 mg/kg, sc measured after 24 hrs by H and E staining based analysis; type: organism-based; details: in vivo
[34] = Toxicity in KM mouse assessed as pathological change in lung at 20 mg/kg, sc measured after 24 hrs by H and E staining based analysis; type: organism-based; details: in vivo
[35] = Toxicity in KM mouse assessed as pathological change in heart at 20 mg/kg, sc measured after 24 hrs by H and E staining based analysis; type: organism-based; details: in vivo
[36] = Toxicity in BALB/c mouse assessed as inflammatory cell infiltration in renal tubular epithelial cells at 15 mg/kg, ip bid for 7 days; type: organism-based; details: in vivo, 168 h, time 7 day
Staphylococcus aureus [37] = assay: Antibacterial activity against methicillin-resistant Staphylococcus aureus clinical isolate M12 infected in sepsis BALB/c mouse model assessed as decrease in bacterial load in liver at 12 mg/kg, ip administered consecutively at 12 hr-interval for 24 hrs measured after 24 hrs post-last dose; type: functional; details: time 48 hrs
[38] = Toxicity in KM mouse assessed as animal survival at 5 to 80 mg/kg, sc; type: organism-based; details: in vivo, dose 5-80 mg/kg

C=CCc1cc(-c2ccc(OCCC[N+](C)(C)CC(=O)NCCCC)c(CC=C)c2)c2oc(=S)n(Cc3ccc(F)cc3)c2c1.[Br-]
Activity (Staphylococcus aureus [1]): 92.72%
Activity [2]: Non-Toxic
Activity [3]: Non-Toxic
fold change (FC) (Staphylococcus aureus [4]): ~1.8
Activity (Staphylococcus aureus [5]): inactive
Activity (Staphylococcus aureus [6]): inactive
Activity [7]: Non-Toxic
Activity [8]: Non-Toxic
Activity [9]: Non-Toxic
Activity [10]: Non-Toxic
MIC (Staphylococcus aureus [11]): 2 µg/mL
Activity (Staphylococcus aureus [12]): Dose-Dependent Effect
MIC (Staphylococcus aureus [13]): 2 µg/mL
Activity [14]: Toxic
Activity [15]: Non-Toxic
Activity (Staphylococcus aureus [16]): Active
Activity (Staphylococcus aureus [17]): Dose-Dependent Effect
Activity [18]: Non-Toxic
Activity [19]: Non-Toxic
Activity [20]: Non-Toxic
Activity (Staphylococcus aureus [21]): Active
Activity [22]: Non-Toxic
Activity [23]: Non-Toxic
Activity (Staphylococcus aureus [24]): 65.6 pg/mL
MIC (Staphylococcus aureus [25]): 4 µg/mL
Activity (Staphylococcus aureus [26]): Dose-Dependent Effect
Activity (Staphylococcus aureus [27]): 1.45 log10CFU/g
Activity [28]: Non-Toxic
Activity [29]: Non-Toxic
Activity [30]: Non-Toxic
Activity (Staphylococcus aureus [31]): Active
Activity (Staphylococcus aureus [32]): Active
Activity [33]: Non-Toxic
Activity [34]: Non-Toxic
Activity [35]: Non-Toxic
Activity [36]: Non-Toxic
Activity (Staphylococcus aureus [37]): 1.62 log10CFU/g
Activity [38]: Non-Toxic

From ChEMBL document CHEMBL6127052, “Discovery of membrane-targeting amphiphilic honokiol derivatives containing an oxazolethione moiety to combat methicillin-resistant Staphylococcus aureus (MRSA) infections” (Eur J Med Chem, 2024)
